In article PMC11676667, “Pharmacokinetics of Oral Cannabinoid Δ8-Tetrahydrocannabivarin and Its Main Metabolites in Healthy Participants” (Pharmaceuticals, 2024):
Where two headings read alike, the source gives them in different places.

Experiment: Plasma pharmacokinetics after single oral dose of Δ8-THCV in MCT oil (LC-MS/MS, non-compartmental analysis)
Assay type: in vivo, human
Parameters: Clast (last quantifiable concentration): unit not given here
Settings: for Clast (last quantifiable concentration) / tlast (time to last quantifiable concentration) / concentration at 0.5 h / concentration at 1 h / concentration at 2 h / concentration at 4 h / concentration at 6 h / concentration at 8 h / AUC(0-t) / Cmax / MRT / Tmax: plasma; for plasma concentration: Predose; for concentration at 0.5 h / concentration at 1 h / concentration at 2 h / concentration at 4 h / concentration at 6 h / concentration at 8 h / AUC(0-t) / Cmax / MRT / Tmax: human; for concentration at 0.5 h / concentration at 1 h / concentration at 2 h / concentration at 4 h / concentration at 6 h / concentration at 8 h: oral; for AUC(0-t) / Cmax / MRT / Tmax: po; for MRT: read-out: MRT (mean residence time); for Tmax: read-out: tmax
Summary of the method: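 Healthy participants received single oral Δ8-THCV in MCT oil (50 mg/mL; 12.5-200 mg, or placebo) after a high-fat, high-calorie breakfast, with ≥1-week washout. Plasma (K2EDTA) sampled predose and 0.5-8 h post-dose, assayed by validated LC-MS/MS including metabolites; PK by non-compartmental analysis, sub-LLOQ values set to 0.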

[1] = 100 mg single oral Δ8-THCV in MCT oil, Mean (±SD)
[2] = 100 mg single oral Δ8-THCV in MCT oil, Median (Range)
[3] = 200 mg single oral Δ8-THCV in MCT oil, Mean (±SD)
[4] = 200 mg single oral Δ8-THCV in MCT oil, Median (Range)
[5] = 12.5 mg, 12.5 mg Δ8-THCV dose, Mean (SD, %CV)
[6] = 12.5 mg, 12.5 mg Δ8-THCV dose, Median (IQ Range)
[7] = 25 mg, 25 mg Δ8-THCV dose, Mean (SD, %CV)
[8] = 25 mg, 25 mg Δ8-THCV dose, Median (IQ Range)
[9] = 50 mg, 50 mg Δ8-THCV dose, Mean (SD, %CV)
[10] = 50 mg, 50 mg Δ8-THCV dose, Median (IQ Range)
[11] = 100 mg, 100 mg Δ8-THCV dose, Mean (SD, %CV)
[12] = 100 mg, 100 mg Δ8-THCV dose, Median (IQ Range)
[13] = 200 mg, 200 mg Δ8-THCV dose, Mean (SD, %CV)
[14] = 200 mg, 200 mg Δ8-THCV dose, Median (IQ Range)
[15] = 100 mg, 100 mg single oral Δ8-THCV in MCT oil, Mean (±SD)
[16] = 100 mg, 100 mg single oral Δ8-THCV in MCT oil, Median (Range)
[17] = 200 mg, 200 mg single oral Δ8-THCV in MCT oil, Mean (±SD)
[18] = 200 mg, 200 mg single oral Δ8-THCV in MCT oil, Median (Range)

Structure (SMILES): CCCc1cc(O)c2c(c1)OC(C)(C)[C@@H]1CCC(C)=C[C@@H]21 [Δ9-THCV, Δ9-tetrahydrocannabivarin]
- Clast (last quantifiable concentration) [1]: 1.1 (±0.5)
- tlast (time to last quantifiable concentration) [1]: 4.8 (±1.5)
- Clast (last quantifiable concentration) [2]: 0.8 (0.5–1.9)
- tlast (time to last quantifiable concentration) [2]: 5 (2–6)
- Clast (last quantifiable concentration) [3]: 1.5 (±1)
- tlast (time to last quantifiable concentration) [3]: 6.2 (±2.1)
- Clast (last quantifiable concentration) [4]: 1.4 (0.5–4.1)
- tlast (time to last quantifiable concentration) [4]: 6 (2–8)
- plasma concentration (12.5 mg Δ8-THCV dose, Mean (SD, %CV)): 0 (±0, --) ng/mL
- plasma concentration (12.5 mg Δ8-THCV dose, Median (IQ Range)): 0 (0–0) ng/mL
- plasma concentration (25 mg Δ8-THCV dose, Mean (SD, %CV)): 0 (±0, --) ng/mL
- plasma concentration (25 mg Δ8-THCV dose, Median (IQ Range)): 0 (0–0) ng/mL
- plasma concentration (50 mg Δ8-THCV dose, Mean (SD, %CV)): 0 (±0, --) ng/mL
- plasma concentration (50 mg Δ8-THCV dose, Median (IQ Range)): 0 (0–0) ng/mL
- plasma concentration (100 mg Δ8-THCV dose, Mean (SD, %CV)): 0 (±0, --) ng/mL
- plasma concentration (100 mg Δ8-THCV dose, Median (IQ Range)): 0 (0–0) ng/mL
- plasma concentration (200 mg Δ8-THCV dose, Mean (SD, %CV)): 0 (±0, --) ng/mL
- plasma concentration (200 mg Δ8-THCV dose, Median (IQ Range)): 0 (0–0) ng/mL
- concentration at 0.5 h [5]: 0 ng/mL
- concentration at 0.5 h [6]: 0 ng/mL
- concentration at 1 h [5]: 0 ng/mL
- concentration at 1 h [6]: 0 ng/mL
- concentration at 2 h [5]: 0 ng/mL
- concentration at 2 h [6]: 0 ng/mL
- concentration at 4 h [5]: 0 ng/mL
- concentration at 4 h [6]: 0 ng/mL
- concentration at 6 h [5]: 0 ng/mL
- concentration at 6 h [6]: 0 ng/mL
- concentration at 8 h [5]: 0 ng/mL
- concentration at 8 h [6]: 0 ng/mL
- concentration at 0.5 h [7]: 0 ng/mL
- concentration at 0.5 h [8]: 0 ng/mL
- concentration at 1 h [7]: 0 ng/mL
- concentration at 1 h [8]: 0 ng/mL
- concentration at 2 h [7]: 0 ng/mL
- concentration at 2 h [8]: 0 ng/mL
- concentration at 4 h [7]: 0 ng/mL
- concentration at 4 h [8]: 0 ng/mL
- concentration at 6 h [7]: 0 ng/mL
- concentration at 6 h [8]: 0 ng/mL
- concentration at 8 h [7]: 0 ng/mL
- concentration at 8 h [8]: 0 ng/mL
- concentration at 0.5 h [9]: 0 ng/mL
- concentration at 0.5 h [10]: 0 ng/mL
- concentration at 1 h [9]: 0 ng/mL
- concentration at 1 h [10]: 0 ng/mL
- concentration at 2 h [9]: 0 ng/mL
- concentration at 2 h [10]: 0 ng/mL
- concentration at 4 h [9]: 0 ng/mL
- concentration at 4 h [10]: 0 ng/mL
- concentration at 6 h [9]: 0.1 ng/mL
- concentration at 6 h [10]: 0 ng/mL
- concentration at 8 h [9]: 0 ng/mL
- concentration at 8 h [10]: 0 ng/mL
- concentration at 0.5 h [11]: 0 ng/mL
- concentration at 0.5 h [12]: 0 ng/mL
- concentration at 1 h [11]: 0.1 ng/mL
- concentration at 1 h [12]: 0 ng/mL
- concentration at 2 h [11]: 0.1 ng/mL
- concentration at 2 h [12]: 0 ng/mL
- concentration at 4 h [11]: 0.3 ng/mL
- concentration at 4 h [12]: 0 ng/mL
- concentration at 6 h [11]: 0.3 ng/mL
- concentration at 6 h [12]: 0 ng/mL
- concentration at 8 h [11]: 0 ng/mL
- concentration at 8 h [12]: 0 ng/mL
- concentration at 0.5 h [13]: 0 ng/mL
- concentration at 0.5 h [14]: 0 ng/mL
- concentration at 1 h [13]: 0 ng/mL
- concentration at 1 h [14]: 0 ng/mL
- concentration at 2 h [13]: 0.6 ng/mL
- concentration at 2 h [14]: 0 ng/mL
- concentration at 4 h [13]: 0.9 ng/mL
- concentration at 4 h [14]: 0.7 ng/mL
- concentration at 6 h [13]: 0.7 ng/mL
- concentration at 6 h [14]: 0.6 ng/mL
- concentration at 8 h [13]: 0.6 ng/mL
- concentration at 8 h [14]: 0 ng/mL
- AUC(0-t) [15]: 1.4 ng·h/mL
- Cmax [15]: 1.1 ng/mL
- AUC(0-t) [16]: 1.2 ng·h/mL
- Cmax [16]: 0.9 ng/mL
- MRT [15]: 4.4 h
- Tmax [15]: 4.6 h
- MRT [16]: 4.4 h
- Tmax [16]: 5 h
- AUC(0-t) [17]: 4.8 ng·h/mL
- Cmax [17]: 2 ng/mL
- AUC(0-t) [18]: 4.5 ng·h/mL
- Cmax [18]: 1.7 ng/mL
- MRT [17]: 4.5 h
- Tmax [17]: 4.9 h
- MRT [18]: 4.6 h
- Tmax [18]: 4 h
- number of positive plasma samples (of 504 plasma samples from 15 participants after oral Δ8-THCV): 42
- concentration in representative plasma sample (one subject after oral Δ8-THCV in MCT oil, Figure A1): 2.4 ng/mL
